Common to all, as to experiment: relative viability (nuclei count vs DMSO), 5 days (fraction); higher = more cells survive
Compound in test [1]: CC(C)C[C@H](NC(=O)[C@H](CCc1ccccc1)NC(=O)CN1CCOCC1)C(=O)N[C@@H](Cc1ccccc1)C(=O)N[C@@H](CC(C)C)C(=O)[C@@]1(C)CO1 [Carfilzomib] + CC(=O)c1c(C)c2cnc(Nc3ccc(N4CCNCC4)cn3)nc2n(C2CCCC2)c1=O [Palbociclib] (partner 0.5 µM)
In short, it runs like this:
(§1)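 Lung cancer cell lines were seeded in 1536-well plates and dosed by pin tool the next day, with either a single drug or a fixed anchor-drug dose combined with five library-drug doses (not always all listed) spaced in √10 steps. Five days later, one step fixed the cells and stained their nuclei (final 0.05% Triton X-100, 1% formaldehyde, 1 ug/ml Hoechst), and nuclei were counted on 4× images. Relative viability is the nuclei count in treated wells divided by the count in vehicle wells, and each value is the median of duplicate plates.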

Compound in the test “Carfilzomib + Pictilisib”: CC(C)C[C@H](NC(=O)[C@H](CCc1ccccc1)NC(=O)CN1CCOCC1)C(=O)N[C@@H](Cc1ccccc1)C(=O)N[C@@H](CC(C)C)C(=O)[C@@]1(C)CO1 [Carfilzomib] + CS(=O)(=O)N1CCN(Cc2cc3nc(-c4cccc5[nH]ncc45)nc(N4CCOCC4)c3s2)CC1 [Pictilisib] (partner 1 µM)
In short, it runs like this:
as §1

Compound in the test “Olaparib + Trametinib”: O=C(c1cc(Cc2n[nH]c(=O)c3ccccc23)ccc1F)N1CCN(C(=O)C2CC2)CC1 [Olaparib] + CC(=O)Nc1cccc(-n2c(=O)n(C3CC3)c(=O)c3c(Nc4ccc(I)cc4F)n(C)c(=O)c(C)c32)c1 [Trametinib] (partner 0.02 µM)
The method, boiled down: as §1

Compound in the test “Olaparib + Alpelisib”: O=C(c1cc(Cc2n[nH]c(=O)c3ccccc23)ccc1F)N1CCN(C(=O)C2CC2)CC1 [Olaparib] + Cc1nc(NC(=O)N2CCC[C@H]2C(N)=O)sc1-c1ccnc(C(C)(C)C(F)(F)F)c1 [Alpelisib] (partner 2 µM)
The method, boiled down:
as §1

In the case of SK-LU-1, the relative viability in test [1] (first compound 0.001 µM) is 0.331; in test [1] (first compound 0.003162 µM), 0.442; in test [1] (first compound 0.01 µM) it was 0.336; in test [1] (first compound 0.03162 µM), 0.266; in test [1] (first compound 0.1 µM), 0.171; with Carfilzomib + Pictilisib (first compound 0.001 µM), 0.518. Also, the relative viability in the test with Carfilzomib + Pictilisib (first compound 0.003162 µM) was found to be 0.653; in the test with Carfilzomib + Pictilisib (first compound 0.01 µM), 0.541; with Carfilzomib + Pictilisib (first compound 0.03162 µM), 0.201; in the test with Carfilzomib + Pictilisib (first compound 0.1 µM), 0.15; with Olaparib + Trametinib (first compound 0.08 µM), 0.515; with Olaparib + Trametinib (first compound 0.253 µM) it was 0.402. The relative viability in the test with Olaparib + Trametinib (first compound 2.53 µM) worked out at 0.496; in the test with Olaparib + Trametinib (first compound 8 µM) it was 0.417; in the test with Olaparib + Alpelisib (first compound 0.08 µM) it was 1.14; in the test with Olaparib + Alpelisib (first compound 0.253 µM), 0.859; with Olaparib + Alpelisib (first compound 2.53 µM), 0.837; in the test with Olaparib + Alpelisib (first compound 8 µM), 0.554.
In the case of SK-MES-1, the relative viability in test [1] (first compound 0.001 µM) is 0.387; in test [1] (first compound 0.003162 µM) it was 0.344; in test [1] (first compound 0.01 µM), 0.34; in test [1] (first compound 0.03162 µM), 0.282; in test [1] (first compound 0.1 µM), 0.183; with Carfilzomib + Pictilisib (first compound 0.001 µM) it was 0.338. Also, the relative viability worked out at 0.419 in the test with Carfilzomib + Pictilisib (first compound 0.003162 µM); 0.337 in the test with Carfilzomib + Pictilisib (first compound 0.01 µM); 0.283 in the test with Carfilzomib + Pictilisib (first compound 0.03162 µM); 0.174 with Carfilzomib + Pictilisib (first compound 0.1 µM); 0.577 in the test with Olaparib + Trametinib (first compound 0.08 µM); 0.539 with Olaparib + Trametinib (first compound 0.253 µM). Further, the relative viability came to 0.608 with Olaparib + Trametinib (first compound 2.53 µM); 0.616 with Olaparib + Trametinib (first compound 8 µM); 0.925 with Olaparib + Alpelisib (first compound 0.08 µM); 0.764 in the test with Olaparib + Alpelisib (first compound 0.253 µM); 1.02 with Olaparib + Alpelisib (first compound 2.53 µM); 0.697 in the test with Olaparib + Alpelisib (first compound 8 µM).
Turning to SW 1573, the relative viability in test [1] (first compound 0.001 µM) amounted to 0.396; in test [1] (first compound 0.003162 µM), 0.5; in test [1] (first compound 0.01 µM), 0.235; in test [1] (first compound 0.03162 µM) it was 0.0595; in test [1] (first compound 0.1 µM) it was 0.0481; with Carfilzomib + Pictilisib (first compound 0.001 µM) it was 0.517. Also, the relative viability amounted to 0.512 in the test with Carfilzomib + Pictilisib (first compound 0.003162 µM); 0.404 in the test with Carfilzomib + Pictilisib (first compound 0.01 µM); 0.277 with Carfilzomib + Pictilisib (first compound 0.03162 µM); 0.0513 with Carfilzomib + Pictilisib (first compound 0.1 µM); 0.591 in the test with Olaparib + Trametinib (first compound 0.08 µM); 0.565 in the test with Olaparib + Trametinib (first compound 0.253 µM). The relative viability with Olaparib + Trametinib (first compound 2.53 µM) was 0.515; in the test with Olaparib + Trametinib (first compound 8 µM), 0.473; with Olaparib + Alpelisib (first compound 0.08 µM), 0.715; in the test with Olaparib + Alpelisib (first compound 0.253 µM) it was 0.667; in the test with Olaparib + Alpelisib (first compound 2.53 µM) it was 0.627; in the test with Olaparib + Alpelisib (first compound 8 µM), 0.471.
On to UMC-11, for which the relative viability in test [1] (first compound 0.001 µM) was found to be 0.378; in test [1] (first compound 0.003162 µM), 0.325; in test [1] (first compound 0.01 µM), 0.343; in test [1] (first compound 0.03162 µM) it was 0.343; in test [1] (first compound 0.1 µM) it was 0.277; with Carfilzomib + Pictilisib (first compound 0.001 µM), 0.608. For the same cell line, the relative viability in the test with Carfilzomib + Pictilisib (first compound 0.003162 µM) was 0.956; with Carfilzomib + Pictilisib (first compound 0.01 µM), 0.778; in the test with Carfilzomib + Pictilisib (first compound 0.03162 µM), 0.648; with Carfilzomib + Pictilisib (first compound 0.1 µM), 0.336; in the test with Olaparib + Trametinib (first compound 0.08 µM), 0.651; with Olaparib + Trametinib (first compound 0.253 µM) it was 0.644. The relative viability in the test with Olaparib + Trametinib (first compound 2.53 µM) turned out to be 0.59; in the test with Olaparib + Trametinib (first compound 8 µM), 0.376; in the test with Olaparib + Alpelisib (first compound 0.08 µM), 1.08; in the test with Olaparib + Alpelisib (first compound 0.253 µM), 0.877; in the test with Olaparib + Alpelisib (first compound 2.53 µM) it was 0.825; with Olaparib + Alpelisib (first compound 8 µM) it was 0.409.

Values taken from the supplement of paper PMC10307832.
